These are literature values, as cited in patent US12303619B2, “Polymer implants” (Foundry Therapeutics, Inc., priority 2018, dated 2025).

For the compound `CCCCN1CCCCC1C(=O)Nc1c(C)cccc1C` (stereo not shown) [bupivacaine], the pKa entry is given as “about 8.0”.
